Measured values as given in ChEMBL document CHEMBL3991601, “The target landscape of clinical kinase drugs” (Science, 2017).
The source made the active and inactive calls. For most assays here, no stated cut-off is given here; in the data, actives have a measured Kd and inactives only a lower limit.

How the values were obtained:
Adenosine kinase = Adenosine kinase (Homo sapiens, UniProt P55263)
[1] = target: RAC-gamma serine/threonine-protein kinase (Homo sapiens, UniProt Q9Y243)
[2] = target: Cyclin-dependent kinase 13 (Homo sapiens, UniProt Q14004)
[3] = target: T1, Phenylalanine--tRNA ligase beta subunit (Homo sapiens, UniProt Q9NSD9)
T1 sequence (Q9NSD9 whole entry): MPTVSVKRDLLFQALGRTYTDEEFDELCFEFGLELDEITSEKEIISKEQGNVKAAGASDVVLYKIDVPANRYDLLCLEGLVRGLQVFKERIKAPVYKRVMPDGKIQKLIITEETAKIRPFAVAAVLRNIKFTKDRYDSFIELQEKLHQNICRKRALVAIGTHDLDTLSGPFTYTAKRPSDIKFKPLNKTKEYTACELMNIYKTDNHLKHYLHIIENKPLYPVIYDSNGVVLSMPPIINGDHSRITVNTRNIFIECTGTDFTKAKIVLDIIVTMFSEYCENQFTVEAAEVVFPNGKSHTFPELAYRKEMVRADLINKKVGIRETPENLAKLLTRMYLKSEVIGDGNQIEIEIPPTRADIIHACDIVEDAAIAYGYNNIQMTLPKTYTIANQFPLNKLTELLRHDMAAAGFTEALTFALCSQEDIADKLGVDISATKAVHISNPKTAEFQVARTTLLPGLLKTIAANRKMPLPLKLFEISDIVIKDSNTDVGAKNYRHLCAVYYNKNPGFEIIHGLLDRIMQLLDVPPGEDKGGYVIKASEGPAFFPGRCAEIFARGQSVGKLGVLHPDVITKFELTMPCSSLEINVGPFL

[4] = target: Protein kinase C alpha type (Homo sapiens, UniProt P17252)
[5] = target: Ras-related protein Rab-6A (Homo sapiens, UniProt P20340)
[6] = target: Ribosomal protein S6 kinase alpha-6 (Homo sapiens, UniProt Q9UK32)
[7] = target: T2, Exosome RNA helicase MTR4 (Homo sapiens, UniProt P42285)
T2 sequence (P42285 whole entry): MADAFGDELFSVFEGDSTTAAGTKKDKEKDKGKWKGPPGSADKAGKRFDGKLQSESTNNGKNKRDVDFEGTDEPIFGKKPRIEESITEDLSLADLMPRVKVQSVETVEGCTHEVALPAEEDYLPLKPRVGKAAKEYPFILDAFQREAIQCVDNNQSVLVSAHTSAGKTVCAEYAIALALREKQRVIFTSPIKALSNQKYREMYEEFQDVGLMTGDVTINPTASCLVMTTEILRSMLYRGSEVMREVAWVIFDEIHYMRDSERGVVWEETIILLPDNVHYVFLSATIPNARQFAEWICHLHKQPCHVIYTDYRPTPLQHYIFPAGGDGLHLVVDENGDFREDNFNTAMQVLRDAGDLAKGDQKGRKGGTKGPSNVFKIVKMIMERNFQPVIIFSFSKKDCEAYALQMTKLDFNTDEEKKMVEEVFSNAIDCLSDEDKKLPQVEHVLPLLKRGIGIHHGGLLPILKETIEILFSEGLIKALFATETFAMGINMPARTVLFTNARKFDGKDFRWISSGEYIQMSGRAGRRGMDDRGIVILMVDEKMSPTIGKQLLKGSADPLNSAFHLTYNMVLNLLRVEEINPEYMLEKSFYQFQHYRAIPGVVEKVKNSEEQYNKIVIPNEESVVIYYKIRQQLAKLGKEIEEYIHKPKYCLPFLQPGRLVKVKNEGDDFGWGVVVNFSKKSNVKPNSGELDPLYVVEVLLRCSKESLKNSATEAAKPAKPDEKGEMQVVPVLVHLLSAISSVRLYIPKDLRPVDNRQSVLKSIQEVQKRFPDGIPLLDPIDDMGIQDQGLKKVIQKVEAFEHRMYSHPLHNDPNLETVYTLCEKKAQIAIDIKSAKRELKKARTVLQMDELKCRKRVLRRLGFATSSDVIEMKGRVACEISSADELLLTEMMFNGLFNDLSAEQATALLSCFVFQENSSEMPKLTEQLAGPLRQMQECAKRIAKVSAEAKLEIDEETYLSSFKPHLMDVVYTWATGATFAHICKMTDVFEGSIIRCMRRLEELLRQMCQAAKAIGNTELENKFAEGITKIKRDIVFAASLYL

[8] = target: Proto-oncogene tyrosine-protein kinase Src (Homo sapiens, UniProt P12931)
[9] = target: T3, Serine/threonine-protein kinase TAO3 (Homo sapiens, UniProt Q9H2K8)
T3 sequence (Q9H2K8 whole entry): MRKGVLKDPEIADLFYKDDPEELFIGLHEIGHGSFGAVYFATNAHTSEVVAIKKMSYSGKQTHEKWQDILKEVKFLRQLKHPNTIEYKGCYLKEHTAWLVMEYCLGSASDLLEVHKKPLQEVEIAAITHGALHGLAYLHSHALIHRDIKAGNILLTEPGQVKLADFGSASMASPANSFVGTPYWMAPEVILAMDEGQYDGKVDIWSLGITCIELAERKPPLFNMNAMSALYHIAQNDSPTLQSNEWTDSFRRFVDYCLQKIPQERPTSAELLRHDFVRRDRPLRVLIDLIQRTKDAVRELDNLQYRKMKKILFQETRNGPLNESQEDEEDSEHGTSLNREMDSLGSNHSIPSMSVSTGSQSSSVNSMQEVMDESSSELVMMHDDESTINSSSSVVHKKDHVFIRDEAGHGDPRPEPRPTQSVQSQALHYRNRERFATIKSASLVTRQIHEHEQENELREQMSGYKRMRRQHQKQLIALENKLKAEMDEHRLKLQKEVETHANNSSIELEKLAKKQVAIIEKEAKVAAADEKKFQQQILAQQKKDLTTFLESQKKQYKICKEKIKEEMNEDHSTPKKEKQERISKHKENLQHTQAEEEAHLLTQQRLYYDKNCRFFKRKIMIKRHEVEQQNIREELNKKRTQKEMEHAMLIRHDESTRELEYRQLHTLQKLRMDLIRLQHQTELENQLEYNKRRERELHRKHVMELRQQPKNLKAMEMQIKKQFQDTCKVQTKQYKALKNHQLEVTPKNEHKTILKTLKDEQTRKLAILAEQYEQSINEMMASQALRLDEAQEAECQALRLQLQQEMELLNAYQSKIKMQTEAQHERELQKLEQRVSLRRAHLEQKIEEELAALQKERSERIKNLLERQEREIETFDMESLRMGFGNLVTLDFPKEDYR

Wee1-like protein kinase = Wee1-like protein kinase (Homo sapiens, UniProt P30291)
Wee1-like protein kinase, sequence (P30291 whole entry): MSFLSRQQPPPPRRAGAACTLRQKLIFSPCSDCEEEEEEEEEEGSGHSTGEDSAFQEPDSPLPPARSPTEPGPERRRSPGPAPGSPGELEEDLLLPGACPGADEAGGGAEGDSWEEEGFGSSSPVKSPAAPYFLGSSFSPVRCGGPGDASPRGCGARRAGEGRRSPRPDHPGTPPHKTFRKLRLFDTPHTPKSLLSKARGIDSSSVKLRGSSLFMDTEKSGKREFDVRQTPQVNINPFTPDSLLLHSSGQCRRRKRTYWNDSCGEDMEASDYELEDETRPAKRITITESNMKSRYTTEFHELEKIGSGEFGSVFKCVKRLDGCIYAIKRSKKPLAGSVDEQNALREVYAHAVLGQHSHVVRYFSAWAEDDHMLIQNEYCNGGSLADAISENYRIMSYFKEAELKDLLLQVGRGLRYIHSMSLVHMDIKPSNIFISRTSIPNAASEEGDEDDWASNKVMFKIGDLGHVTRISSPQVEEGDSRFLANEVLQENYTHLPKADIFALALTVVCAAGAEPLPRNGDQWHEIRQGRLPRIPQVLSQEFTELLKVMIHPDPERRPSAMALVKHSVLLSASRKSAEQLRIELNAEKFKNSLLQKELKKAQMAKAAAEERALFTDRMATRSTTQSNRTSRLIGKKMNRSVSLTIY

Cyclin-dependent kinase 13, sequence (Q14004 whole entry): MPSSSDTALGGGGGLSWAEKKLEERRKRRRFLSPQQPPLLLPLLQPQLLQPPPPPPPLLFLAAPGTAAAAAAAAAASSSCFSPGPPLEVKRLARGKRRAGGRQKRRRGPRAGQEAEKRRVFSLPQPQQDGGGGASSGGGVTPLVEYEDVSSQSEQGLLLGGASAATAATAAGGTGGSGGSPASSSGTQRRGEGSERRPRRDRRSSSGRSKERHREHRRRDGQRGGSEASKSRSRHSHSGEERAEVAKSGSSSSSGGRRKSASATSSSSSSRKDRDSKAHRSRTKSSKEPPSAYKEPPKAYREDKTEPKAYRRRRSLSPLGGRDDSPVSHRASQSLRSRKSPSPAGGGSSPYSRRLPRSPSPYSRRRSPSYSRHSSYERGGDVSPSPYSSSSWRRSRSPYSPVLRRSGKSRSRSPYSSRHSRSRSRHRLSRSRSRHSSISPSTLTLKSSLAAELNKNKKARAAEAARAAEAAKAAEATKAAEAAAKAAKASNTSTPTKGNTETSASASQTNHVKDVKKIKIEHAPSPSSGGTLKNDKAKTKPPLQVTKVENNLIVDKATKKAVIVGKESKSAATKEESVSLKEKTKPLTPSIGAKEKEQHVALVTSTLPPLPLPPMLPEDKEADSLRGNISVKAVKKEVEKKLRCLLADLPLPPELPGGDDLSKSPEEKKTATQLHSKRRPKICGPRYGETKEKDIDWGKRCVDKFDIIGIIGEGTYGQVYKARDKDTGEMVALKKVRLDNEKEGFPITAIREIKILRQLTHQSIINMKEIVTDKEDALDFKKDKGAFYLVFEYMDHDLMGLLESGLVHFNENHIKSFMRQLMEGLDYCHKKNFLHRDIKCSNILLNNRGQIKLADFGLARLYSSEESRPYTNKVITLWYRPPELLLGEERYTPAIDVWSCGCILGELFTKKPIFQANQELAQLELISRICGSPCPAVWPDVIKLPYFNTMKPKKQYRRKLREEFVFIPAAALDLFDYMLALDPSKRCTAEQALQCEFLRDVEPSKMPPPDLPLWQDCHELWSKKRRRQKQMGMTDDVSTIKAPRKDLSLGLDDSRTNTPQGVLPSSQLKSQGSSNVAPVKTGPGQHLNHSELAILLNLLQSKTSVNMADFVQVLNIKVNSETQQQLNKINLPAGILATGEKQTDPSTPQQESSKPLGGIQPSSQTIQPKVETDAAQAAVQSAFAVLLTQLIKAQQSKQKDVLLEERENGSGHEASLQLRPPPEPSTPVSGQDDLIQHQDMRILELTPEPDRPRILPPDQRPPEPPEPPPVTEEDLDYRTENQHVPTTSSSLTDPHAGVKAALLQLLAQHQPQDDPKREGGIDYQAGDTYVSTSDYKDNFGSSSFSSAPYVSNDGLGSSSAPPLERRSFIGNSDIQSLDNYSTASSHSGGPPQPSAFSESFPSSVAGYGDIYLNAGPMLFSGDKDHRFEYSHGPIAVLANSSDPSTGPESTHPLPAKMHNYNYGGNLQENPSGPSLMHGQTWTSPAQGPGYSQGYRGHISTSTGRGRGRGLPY
Ras-related protein Rab-6A, sequence (P20340 whole entry): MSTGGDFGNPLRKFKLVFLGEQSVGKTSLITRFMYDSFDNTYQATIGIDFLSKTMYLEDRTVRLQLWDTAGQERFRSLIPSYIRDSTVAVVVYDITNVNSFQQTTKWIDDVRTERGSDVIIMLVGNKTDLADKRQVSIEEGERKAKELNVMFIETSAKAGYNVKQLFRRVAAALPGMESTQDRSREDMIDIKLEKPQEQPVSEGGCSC
Adenosine kinase, sequence (P55263 whole entry): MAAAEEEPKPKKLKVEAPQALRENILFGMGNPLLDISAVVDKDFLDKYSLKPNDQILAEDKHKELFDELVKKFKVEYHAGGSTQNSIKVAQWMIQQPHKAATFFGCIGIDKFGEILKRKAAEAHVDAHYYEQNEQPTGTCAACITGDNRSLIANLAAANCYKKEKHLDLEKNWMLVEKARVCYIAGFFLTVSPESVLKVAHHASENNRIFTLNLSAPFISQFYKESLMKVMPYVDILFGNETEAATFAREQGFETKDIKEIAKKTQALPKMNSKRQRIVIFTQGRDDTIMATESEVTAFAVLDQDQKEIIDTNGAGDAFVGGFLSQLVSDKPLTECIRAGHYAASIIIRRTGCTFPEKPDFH
Proto-oncogene tyrosine-protein kinase Src, sequence (P12931 2-536 limits assumed): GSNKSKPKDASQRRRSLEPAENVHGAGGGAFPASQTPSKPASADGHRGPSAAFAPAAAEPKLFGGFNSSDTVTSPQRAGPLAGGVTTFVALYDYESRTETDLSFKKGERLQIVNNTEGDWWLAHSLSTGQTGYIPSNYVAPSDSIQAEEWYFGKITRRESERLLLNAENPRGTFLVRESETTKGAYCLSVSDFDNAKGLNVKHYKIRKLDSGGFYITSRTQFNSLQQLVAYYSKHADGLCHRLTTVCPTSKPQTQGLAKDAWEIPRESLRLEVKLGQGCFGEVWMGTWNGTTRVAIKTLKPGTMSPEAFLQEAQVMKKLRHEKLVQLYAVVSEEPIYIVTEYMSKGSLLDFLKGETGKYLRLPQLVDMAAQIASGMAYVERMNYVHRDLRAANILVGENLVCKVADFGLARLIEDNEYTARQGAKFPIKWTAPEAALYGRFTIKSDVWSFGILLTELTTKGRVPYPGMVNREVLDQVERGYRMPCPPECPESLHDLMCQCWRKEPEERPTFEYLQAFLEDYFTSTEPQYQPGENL
RAC-gamma serine/threonine-protein kinase, sequence (Q9Y243 whole entry): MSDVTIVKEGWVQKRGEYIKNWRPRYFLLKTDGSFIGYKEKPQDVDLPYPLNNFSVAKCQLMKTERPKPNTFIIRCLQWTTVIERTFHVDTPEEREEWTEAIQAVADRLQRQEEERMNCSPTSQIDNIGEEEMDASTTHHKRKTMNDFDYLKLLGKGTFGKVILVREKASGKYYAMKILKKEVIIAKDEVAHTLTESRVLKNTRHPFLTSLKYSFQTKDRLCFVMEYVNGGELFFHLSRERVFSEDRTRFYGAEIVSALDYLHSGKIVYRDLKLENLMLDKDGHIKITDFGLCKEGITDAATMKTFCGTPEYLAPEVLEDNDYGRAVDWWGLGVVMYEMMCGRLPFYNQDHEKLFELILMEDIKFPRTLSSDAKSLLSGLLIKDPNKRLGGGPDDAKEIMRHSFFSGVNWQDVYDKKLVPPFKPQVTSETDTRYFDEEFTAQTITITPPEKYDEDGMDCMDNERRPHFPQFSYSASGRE

Kd (Adenosine kinase): > 30 µM (inactive)
Kd [1]: > 30 µM (inactive)
Kd [2]: > 30 µM (inactive)
Kd [3]: > 30 µM (inactive)
Kd [4]: 885 nM (active)
Kd [5]: > 30 µM (inactive)
Kd [6]: > 30 µM (inactive)
Kd [7]: > 30 µM (inactive)
Kd [8]: > 30 µM (inactive)
Kd [9]: 2.86 µM (active)
Kd (Wee1-like protein kinase): > 30 µM (inactive)
SMILES: CN1C/C=C/CCOc2cccc(c2)-c2ccnc(n2)Nc2cccc(c2)C1 [ZOTIRACICLIB]
